Assay results taken from patent US9546164B2 (GENENTECH, INC., priority 2013, dated 2017).
Structures can show the parent of a compound that is named as a salt. Where two headings read alike, the source gives them in different places.

Tests used:
NaV1.5 = NaV1.5 (Homo sapiens (Human), UniProt Q14524); assay: Patch voltage clamp electrophysiological assay (EP), NaV1.5
Procedure: The following patch voltage clamp electrophysiology studies were performed on representative compounds of the invention using human embryonic kidney cells (HEK), permanently transfected with an expression vector containing the full-length cDNA coding for the desired human sodium channel α-subunit, grown in culture media containing 10% FBS, 1% PSG, and 0.5 mg/mL G418 at 37° C. with 5% CO2. […] The β1 subunit was coexpressed in both the NaV1.7 and NaV1.5 cell lines.
Sodium currents were measured rising the patch clamp technique in the whole-cell configuration using either a PatchXpress automated voltage clamp or manually using an Axopatch 200B (Axon Instruments) or Model 2400 (A-M systems) amplifier. […] The pipette was filled with a solution comprised of: 5 mM NaCl, 10 mM CsCl, 120 mM CsF, 0.1 mM CaCl2, 2 mM MgCl2, 10 mM HEPES, 10 mM EGTA; and adjusted to pH 7.2 with CsOH. The external solution had the following composition: 140 mM NaCl, 5 mM KCl, 2 mM CaCl2, 1 mM MgCl2, 10 mM HEPES; and adjusted to pH 7.4 with NaOH. In some studies, the external sodium was reduced by equimolar replacement with choline. Osmolality in the CsF internal and NaCl external solutions was adjusted to 300 mOsm/kg and 310 mOsm/kg with glucose, respectively. All recordings were performed at ambient temperature in a bath chamber with a volume of 150 μL. Control sodium currents were measured in 0.5% DMSO. Controls and representative compounds of the invention were applied to the recording chamber through a 4-pinch or 8-pinch valve bath perfusion system manufactured by ALA Scientific Instruments.
Currents were recorded at 40 kHz sampling frequency, filtered at 5 Hz, and stored using a Digidata-1322A analogue/digital interface with the pClamp software (Axon instruments). Series resistance compensation was applied (60-80%). […] All statistics in this study are given as mean±SD.
The membrane potential was maintained at a voltage where reactivation of the channel is complete (which was −60 mV for both NaV1.7 and NaV1.5). The voltage is then stepped back to a very negative (Vhold=150 mV) voltage for 20 ms and then a test poise is applied to quantify the compound block. The 20 ms brief repolarization was long enough for compound-free channels to completely recover from fast inactivation, but the compound-bound channels recovered more slowly such that negligible recovery could occur during this interval. The percent decrease in sodium current following wash-on of compound was taken as the percent block of sodium channels.

hNav1.7 = hNav1.7 (Homo sapiens (Human), UniProt Q15858); assay: Tritiated sulfonamide competitive binding to membranes from cells expressing hNav1.7 and the β1 subunit;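 also: Filter-bound radioactivity counted by liquid scintillation, nonspecific binding defined with excess unlabelled ligand, IC50 fitted to percent inhibition of specific binding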
Sequence of hNav1.7 (Q15858 other isoform, or with tags, fused parts or gaps): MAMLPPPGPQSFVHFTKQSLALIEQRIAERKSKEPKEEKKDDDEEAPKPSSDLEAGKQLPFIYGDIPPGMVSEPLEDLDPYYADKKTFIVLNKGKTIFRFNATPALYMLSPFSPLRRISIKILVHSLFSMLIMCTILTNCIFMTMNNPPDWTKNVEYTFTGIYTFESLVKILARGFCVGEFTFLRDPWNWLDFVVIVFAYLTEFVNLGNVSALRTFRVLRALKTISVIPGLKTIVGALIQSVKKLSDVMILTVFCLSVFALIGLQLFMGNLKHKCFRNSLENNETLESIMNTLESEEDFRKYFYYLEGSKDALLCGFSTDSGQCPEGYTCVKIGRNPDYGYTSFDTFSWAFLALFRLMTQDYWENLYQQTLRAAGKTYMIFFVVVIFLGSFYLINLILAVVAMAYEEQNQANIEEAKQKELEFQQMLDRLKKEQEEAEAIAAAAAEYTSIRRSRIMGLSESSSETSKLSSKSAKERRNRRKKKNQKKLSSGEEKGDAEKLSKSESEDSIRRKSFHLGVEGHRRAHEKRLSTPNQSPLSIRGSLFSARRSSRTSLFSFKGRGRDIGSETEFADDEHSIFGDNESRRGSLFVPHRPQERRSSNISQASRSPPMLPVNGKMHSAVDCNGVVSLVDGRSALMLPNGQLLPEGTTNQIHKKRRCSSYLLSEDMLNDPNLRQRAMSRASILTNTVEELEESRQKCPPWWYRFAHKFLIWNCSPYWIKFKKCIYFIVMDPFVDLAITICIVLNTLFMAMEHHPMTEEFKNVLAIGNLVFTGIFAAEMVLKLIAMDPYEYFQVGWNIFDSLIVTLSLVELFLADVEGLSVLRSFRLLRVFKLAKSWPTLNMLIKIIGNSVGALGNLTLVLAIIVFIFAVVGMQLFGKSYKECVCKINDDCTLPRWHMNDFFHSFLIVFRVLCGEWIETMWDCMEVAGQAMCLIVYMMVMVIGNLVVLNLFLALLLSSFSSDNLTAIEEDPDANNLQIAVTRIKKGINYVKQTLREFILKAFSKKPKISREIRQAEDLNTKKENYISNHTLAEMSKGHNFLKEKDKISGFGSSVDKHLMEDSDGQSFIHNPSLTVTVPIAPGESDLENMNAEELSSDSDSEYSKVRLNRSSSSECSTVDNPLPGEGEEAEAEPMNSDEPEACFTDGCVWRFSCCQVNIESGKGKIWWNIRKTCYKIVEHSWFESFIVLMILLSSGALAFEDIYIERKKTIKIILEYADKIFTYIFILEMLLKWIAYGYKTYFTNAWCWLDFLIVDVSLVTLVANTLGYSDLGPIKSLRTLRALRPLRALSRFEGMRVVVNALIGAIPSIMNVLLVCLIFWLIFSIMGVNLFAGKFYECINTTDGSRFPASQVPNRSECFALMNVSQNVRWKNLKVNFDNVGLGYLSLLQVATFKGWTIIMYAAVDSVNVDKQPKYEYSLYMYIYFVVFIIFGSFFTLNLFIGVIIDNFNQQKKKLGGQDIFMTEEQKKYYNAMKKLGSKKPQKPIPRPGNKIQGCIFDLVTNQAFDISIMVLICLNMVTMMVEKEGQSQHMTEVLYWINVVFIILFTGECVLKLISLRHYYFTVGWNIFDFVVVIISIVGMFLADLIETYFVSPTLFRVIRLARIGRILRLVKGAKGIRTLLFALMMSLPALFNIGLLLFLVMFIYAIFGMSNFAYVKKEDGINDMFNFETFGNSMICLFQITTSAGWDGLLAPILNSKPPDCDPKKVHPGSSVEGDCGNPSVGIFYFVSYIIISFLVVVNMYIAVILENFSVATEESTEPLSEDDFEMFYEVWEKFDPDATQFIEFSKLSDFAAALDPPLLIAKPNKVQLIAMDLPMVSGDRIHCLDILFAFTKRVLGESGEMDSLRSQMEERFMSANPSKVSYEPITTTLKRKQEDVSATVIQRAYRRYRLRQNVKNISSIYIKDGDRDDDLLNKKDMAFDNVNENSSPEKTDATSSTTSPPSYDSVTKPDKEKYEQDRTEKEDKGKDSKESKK
Sequence of hNav1.7 (Q07699 19-218 partner): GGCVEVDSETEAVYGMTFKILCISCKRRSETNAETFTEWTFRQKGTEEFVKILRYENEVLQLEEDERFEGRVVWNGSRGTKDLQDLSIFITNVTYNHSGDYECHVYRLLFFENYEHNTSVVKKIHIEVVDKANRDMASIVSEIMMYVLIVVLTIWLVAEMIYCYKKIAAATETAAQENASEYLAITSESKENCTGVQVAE
Procedure: Tritiated Sulfonamide Binding to Membranes
Preparation of membranes containing recombinantly expressed sodium channels: Frozen recombinant cell pellets were thawed on ice and diluted to 4 times the cell pellet weight with ice cold 50 mM TrisHCl, pH 7.4 buffer. The cell suspensions were homogenized on ice using a motorized glass douncehomogeniser. Homogenates were further diluted 8.4 times with ice cold 50 mM TrisHCl, pH 7.4 buffer and then centrifuged at 200×g at 4° C. for 15 min. The supersatants were collected and centrifuged at 10000×g at 4° C. for 50 min. The pellets were then re-suspended in 100 mMNaCl, 20 mM TrisHCl, pH. 7.4 buffer containing 1% v/v protease inhibitors (Calbiochem) and re-homogenized on ice. The homogenized membranes were then processed through a syringe equipped with a 26 gauge needle. Protein concentrations were determined by Bradford Assay and the membranes were stored at −80° C.
Radioligand Binding Studies: Saturation experiments. A representative compound of formula (I) having a methyl group was tritiated. Three tritiums were incorporated in place of methyl hydrogens to generate [^3H]compound. Binding of this radioligand was preformed in 5 mL borosilicate glass test tubes at room temperature. Binding was initiated by adding membranes to increasing concentrations of [^3H]compound in 100 mM NaCl, 20 mM TrisHCl, pH 7.4 buffer containing 0.01% w/v bovine serum albumin (BSA) for 18 h. Non-specific binding was determined in the presence of 1 μM unlabelled compound. After 18 h, the reactants were filtered through GF/C glass fiber filters presoaked in 0.5% w/v polyethylene imine. Filters were washed with 15 mL ice cold 100 mM NaCl, 20 mM TrisHCl, pH7.4 buffer containing 0.25% BSA to separate bound from free ligand. [^3H]compound bound to filters was quantified by liquid scintillation counting.
Competitive binding experiments: Binding reactions were preformed its 96-well polypropylene plates at room temperature for 18 h. In 360 μL, membranes were incubated with 100 pM [^3H]compound and increasing concentrations of Test Compound. Non-specific binding was defined in the presence of 1 μM unlabelled compound. Reactions were transferred and filtered through 96-well glass fiber/C filter plates presoaked with 0.5% polyethylene imine. The filtered reactions were washed 5 times with 200 μL ice cold butter containing 0.25% BSA. Bound radioactivity was determined by liquid scintillation counting.
Data Analysis: For saturation experiments, non-specific binding was subtracted from total binding to provide specific binding and these values were recalculated in terms of pmol ligand bound per mg protein. Saturation curves were constructed and dissociation constants were calculated using the single site ligand binding model: Beq=(Bmax*X)/(X+KD), where Beq is the amount of ligand bound at equilibrium, Bmax is the maximum receptor density, Kd is the dissociation constant for the ligand, and X is the tree ligand concentration. For competition studies percent inhibition was determined and IC50 values were calculated using a 4 parameter logistic model (% inhibition=(A+((B−A)/(1+((x/C)^D)))) using XLfit, where A and B are the maximal and minimum inhibition respectively, C is the IC50 concentration and D is the (Hill) slope.

NaV1.7 = NaV1.7 (Homo sapiens (Human), UniProt Q15858); assay: Patch voltage clamp electrophysiological assay (EP), NaV1.7; type: cell-based; conditions: HEK-293 cells stably expressing human NaV1.7 with β1 subunit, whole-cell patch clamp, holding −60 mV
Sequence of NaV1.7 (Q15858 other isoform, or with tags, fused parts or gaps): as the sequence (Q15858 other isoform, or with tags, fused parts or gaps) above
Sequence of NaV1.7 (Q07699 19-218 partner): as the sequence (Q07699 19-218 partner) above
Procedure: Electrophysiological Assay (EP) (In vitro Assay)
Control sodium currents were measured in 0.5% DMSO.
Series resistance compensation was applied (60-80%).

[1] = read-out: NaV1.5 EP, HEK-293 cells stably expressing human NaV1.5 with β1 subunit, whole-cell patch clamp, holding −60 mV
[2] = read-out: Ligand Binding Assay, 100 pM [3H]compound, membranes with hNav1.7 and β1 subunit, 18 h, room temperature

Sequence of NaV1.5 (Q14524 whole entry): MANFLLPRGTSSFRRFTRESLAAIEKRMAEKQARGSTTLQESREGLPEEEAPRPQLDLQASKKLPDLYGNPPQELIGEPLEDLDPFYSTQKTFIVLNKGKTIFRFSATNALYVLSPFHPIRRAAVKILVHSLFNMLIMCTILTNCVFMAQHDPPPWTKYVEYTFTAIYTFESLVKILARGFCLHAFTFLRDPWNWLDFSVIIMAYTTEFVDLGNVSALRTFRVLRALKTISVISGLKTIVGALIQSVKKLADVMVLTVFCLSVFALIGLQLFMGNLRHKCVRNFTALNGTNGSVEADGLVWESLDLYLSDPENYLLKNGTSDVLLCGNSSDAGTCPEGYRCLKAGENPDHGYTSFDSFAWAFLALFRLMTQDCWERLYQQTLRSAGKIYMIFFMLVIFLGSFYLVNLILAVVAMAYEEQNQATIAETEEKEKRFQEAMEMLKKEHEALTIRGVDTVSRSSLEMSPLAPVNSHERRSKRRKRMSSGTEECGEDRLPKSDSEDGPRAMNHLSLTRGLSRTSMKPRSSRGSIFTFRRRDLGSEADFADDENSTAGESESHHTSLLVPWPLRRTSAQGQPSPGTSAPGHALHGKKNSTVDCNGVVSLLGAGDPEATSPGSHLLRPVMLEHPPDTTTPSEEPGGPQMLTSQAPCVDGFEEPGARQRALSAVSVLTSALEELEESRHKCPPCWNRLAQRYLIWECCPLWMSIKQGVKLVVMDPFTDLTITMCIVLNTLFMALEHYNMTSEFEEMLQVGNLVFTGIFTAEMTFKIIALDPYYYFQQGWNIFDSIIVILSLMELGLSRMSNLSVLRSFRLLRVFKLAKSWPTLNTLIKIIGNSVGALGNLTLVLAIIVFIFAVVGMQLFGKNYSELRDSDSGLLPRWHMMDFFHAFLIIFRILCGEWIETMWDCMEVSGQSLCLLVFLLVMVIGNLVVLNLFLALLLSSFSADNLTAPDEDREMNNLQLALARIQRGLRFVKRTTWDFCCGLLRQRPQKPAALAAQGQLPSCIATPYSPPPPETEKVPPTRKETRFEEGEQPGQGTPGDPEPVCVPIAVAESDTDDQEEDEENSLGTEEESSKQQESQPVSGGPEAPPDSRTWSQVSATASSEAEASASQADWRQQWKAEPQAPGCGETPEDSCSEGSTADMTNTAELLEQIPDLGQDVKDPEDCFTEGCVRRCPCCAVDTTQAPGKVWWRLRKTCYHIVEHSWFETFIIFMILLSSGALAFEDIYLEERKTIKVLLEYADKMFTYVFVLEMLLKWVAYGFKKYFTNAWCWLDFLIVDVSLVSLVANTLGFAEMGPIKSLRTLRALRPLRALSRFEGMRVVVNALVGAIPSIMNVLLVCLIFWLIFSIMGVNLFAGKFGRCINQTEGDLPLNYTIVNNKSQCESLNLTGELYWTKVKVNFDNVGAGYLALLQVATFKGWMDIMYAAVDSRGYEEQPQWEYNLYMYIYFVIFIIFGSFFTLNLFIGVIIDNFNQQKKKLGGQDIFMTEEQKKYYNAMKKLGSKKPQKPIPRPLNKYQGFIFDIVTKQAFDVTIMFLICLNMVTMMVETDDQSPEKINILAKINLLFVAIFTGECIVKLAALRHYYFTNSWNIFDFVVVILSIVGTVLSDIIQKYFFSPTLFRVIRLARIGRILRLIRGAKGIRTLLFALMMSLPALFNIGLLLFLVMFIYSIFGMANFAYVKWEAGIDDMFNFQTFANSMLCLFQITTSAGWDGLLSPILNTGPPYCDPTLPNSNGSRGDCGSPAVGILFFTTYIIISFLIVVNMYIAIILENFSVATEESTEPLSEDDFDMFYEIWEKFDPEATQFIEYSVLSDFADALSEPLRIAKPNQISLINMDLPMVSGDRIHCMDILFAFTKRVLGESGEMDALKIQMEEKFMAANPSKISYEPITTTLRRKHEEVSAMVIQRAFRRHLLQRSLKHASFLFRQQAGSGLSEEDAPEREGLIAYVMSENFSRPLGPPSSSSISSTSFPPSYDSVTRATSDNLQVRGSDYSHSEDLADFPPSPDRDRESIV

IC50 (hNav1.7; [2]) [nM] | IC50 (NaV1.7) [nM] | SMILES | other results
2.2 | 23 | O=C(NS(=O)(=O)C1CC1)c1cc(C2CC2)c(OCC2CCN(Cc3cc(Cl)cc(Cl)c3)CC2)cc1F [Example 259, 5-Cyclopropyl-N-(cyclopropylsulfonyl)-4-((1-(3,5-dichlorobenzyl)piperidin-4-yl)methoxy)-2-fluorobenzamide] | IC50 (NaV1.5; [1]): 110 nM
6 | 2.8 | CS(=O)(=O)NC(=O)c1cc(C2CC2)c(OCC2CCN(Cc3cc(F)cc(Cl)c3)CC2)cc1F [Example 268, 4-((1-(3-Chloro-5-fluorobenzyl)piperidin-4-yl)methoxy)-5-cyclopropyl-2-fluoro-N-(methylsulfonyl)benzamide] | 
 | 4.2 | COC[C@H](c1cc(Cl)cc(Cl)c1)N1CCC(COc2cc(F)c(C(=O)NS(=O)(=O)N3CCC3)cc2C2CC2)CC1 (single isomer, unassigned) [Example 167] | 
3.2 |  | CS(=O)(=O)NC(=O)c1cc(C2CC2)c(OCC2CCN(C(c3ccc(F)cc3)c3ccc(F)cc3)CC2)cc1F [Example 418, 4-((1-(bis(4-fluorophenyl)methyl)piperidin-4-yl)methoxy)-5-cyclopropyl-2-fluoro-N-(methylsulfonyl)benzamide, trifluoroacetic acid salt] | 
68 |  | CS(=O)(=O)NC(=O)c1cc(C2CC2)c(OCC2CN(S(=O)(=O)c3cc(Cl)cc(Cl)c3)C2)cc1F [Example 274, 5-Cyclopropyl-4-((1-((3,5-dichlorophenyl)sulfonyl)azetidin-3-yl)methoxy)-2-fluoro-N-(methylsulfonyl)benzamide] | 
1400 |  | CS(=O)(=O)NC(=O)c1cc(C2CC2)c(OCC2CCN([C@@H]3c4ccccc4C[C@@H]3O)CC2)cc1F [Example 199, 5-Cyclopropyl-2-fluoro-4-((1-((1R,2S)-2-hydroxy-2,3-dihydro-1H-inden-1-yl)piperidin-4-yl)methoxy)-N-(methylsulfonyl)benzamide] | 
11.2 |  | CS(=O)(=O)NC(=O)c1cc(C2CC2)c(OCC2CCN(Cc3ccc(Cl)c(F)c3)CC2)cc1F [Example 138, 4-((1-(4-Chloro-3-fluorobenzyl)piperidin-4-yl)methoxy)-5-cyclopropyl-2-fluoro-N-(methylsulfonyl)benzamide] | 
2.9 |  | CC1(COc2cc(F)c(C(=O)NS(C)(=O)=O)cc2C2CC2)CCN(Cc2cc(Cl)cc(Cl)c2)CC1 [Example 123, 5-cyclopropyl-4-((1-(3,5-dichlorobenzyl)-4-methylpiperidin-4-yl)methoxy)-2-fluoro-N-(methylsulfonyl)benzamide] | 
4 |  | C[C@@H](c1cc(Cl)cc(Cl)c1)N1CCC(F)(COc2cc(F)c(C(=O)NS(C)(=O)=O)cc2C2CC2)CC1 [Example 349, (S)-5-cyclopropyl-4-((1-(1-(3,5-dichlorophenyl)ethyl)-4-fluoropiperidin-4-yl)methoxy)-2-fluoro-N-(methylsulfonyl)benzamide, trifluoroacetic acid salt] | 
11.7 |  | O=C(NS(=O)(=O)C1CC1)c1cc(C2CC2)c(OCC2CN(c3cc(C(F)(F)F)c(Cl)cn3)C2)cc1F [Example 543, 4-((1-(5-chloro-4-(trifluoromethyl)pyridin-2-yl)azetidin-3-yl)methoxy)-5-cyclopropyl-N-(cyclopropylsulfonyl)-2-fluorobenzamide] | 
23.1 |  | CS(=O)(=O)NC(=O)c1cc(C2CC2)c(OCC2CCN(S(=O)(=O)c3cccc(C(F)(F)F)c3)CC2)cc1F [Example 374, 5-cyclopropyl-2-fluoro-N-(methylsulfonyl)-4-((1-((3-(trifluoromethyl)phenyl)sulfonyl)piperidin-4-yl)methoxy)benzamide] | 
4120 | 1080 | O=C(NS(=O)(=O)N1CCC1)c1cc(C2CC2)c(O[C@H]2CCCN(Cc3ccccc3)C2)cc1F [Example 2, (S)—N-(azetidin-1-ylsulfonyl)-4-((1-benzylpiperidin-3-yl)oxy)-5-cyclopropyl-2-fluorobenzamide] | 
62.8 |  | CS(=O)(=O)NC(=O)c1cc(C2CC2)c(OCC2CCN(Cc3ccc(F)c(F)c3)CC2)cc1F [Example 160, 5-Cyclopropyl-4-((1-(3,4-difluorobenzyl)piperidin-4-yl)methoxy)-2-fluoro-N-(methylsulfonyl)benzamide] | 

Further lines, the molecule ahead of its results:

SMILES | IC50 (hNav1.7; [2]) [nM] | IC50 (NaV1.7) [nM] | other results
O=C(NS(=O)(=O)C1CC1)c1cc(C2CC2)c(O[C@@H]2CCCN(Cc3cccc(Cl)c3)C2)cc1F [Example 27, (R)-4-((1-(3-chlorobenzyl)piperidin-3-yl)oxy)-5-cyclopropyl-N-(cyclopropylsulfonyl)-2-fluorobenzamide] |  |  | IC50 (NaV1.5): 169 nM; IC50 (hNav1.7): 3.6 nM
CS(=O)(=O)NC(=O)c1cc(C2CC2)c(OCC2(F)CCN(Cc3cc(C(F)(F)F)cc(Cl)c3F)CC2)cc1F [Example 346, 4-((1-(3-chloro-2-fluoro-5-(trifluoromethyl)benzyl)-4-fluoropiperidin-4-yl)methoxy)-5-cyclopropyl-2-fluoro-N-(methylsulfonyl)benzamide trifluoroacetic acid salt] | 4.4 | 2.2 | IC50 (NaV1.5; [1]): 682000 nM
C[C@@H](c1cc(Cl)cc(Cl)c1)N1CCC(COc2cc(F)c(C(=O)NS(C)(=O)=O)cc2C2CC2)CC1 [Example 100, (S)-5-Cyclopropyl-4-((1-(1-(3,5-dichlorophenyl)ethyl)piperidin-4-yl)methoxy)-2-fluoro-N-(methylsulfonyl)benzamide] | 4.19 | 5.8 | IC50 (NaV1.5; [1]): 552 nM
CS(=O)(=O)NC(=O)c1cc(C2CC2)c(OCC2CCN(Cc3cc(Cl)cc(Cl)c3C#N)CC2)cc1F [Example 594, 5-Cyclopropyl-4-((1-(3,5-dichloro-2-cyanobenzyl)piperidin-4-yl)methoxy)-2-fluoro-N-(methylsulfonyl)benzamide] | 137 | 8.4 | IC50 (NaV1.5; [1]): 623 nM
CC(C)Oc1ncc(CN2CCC(COc3cc(F)c(C(=O)NS(C)(=O)=O)cc3C3CC3)CC2)cc1Cl [Example 217, 4-((1-((5-Chloro-6-isopropoxypyridin-3-yl)methyl)piperidin-4-yl)methoxy)-5-cyclopropyl-2-fluoro-N-(methylsulfonyl)benzamide] |  | 2.5 | IC50 (NaV1.5; [1]): 190 nM
COC[C@@H](c1cc(Cl)cc(Cl)c1)N1CCC(COc2cc(F)c(C(=O)NS(=O)(=O)C3CC3)cc2C2CC2)CC1 (single isomer, unassigned) [Example 164] | 4.3 | 3.3 | 
CC(C)(c1cc(Cl)cc(Cl)c1)N1CCC(COc2cc(F)c(C(=O)NS(C)(=O)=O)cc2C2CC2)CC1 [Example 209] | 1.7 | 15.8 | 
O=C(NS(=O)(=O)C1CC1)c1cc(C2CC2)c(CN2[C@@H]3CC[C@H]2C[C@@H](Oc2cc(Cl)cc(Cl)c2)C3)cc1F [Example 475, 5-cyclopropyl-N-(cyclopropylsulfonyl)-4-(((1R,3r,5S)-3-(3,5-dichlorophenoxy)-8-azabicyclo[3.2.1]octan-8-yl)methyl)-2-fluorobenzamide hydrochloride] |  |  | IC50 (NaV1.5): 814 nM
COc1ccc(CN2CCC[C@@H](Oc3cc(F)c(C(=O)NS(C)(=O)=O)cc3C3CC3)C2)c(C)c1 [Example 434, trifluoroacetic acid salt] | 5 | 12.8 | 
COC[C@@H](c1cc(Cl)cc(Cl)c1)N1CCC(COc2cc(F)c(C(=O)NS(C)(=O)=O)cc2C2CC2)CC1 (single isomer, unassigned) [Example 162] | 3.9 | 2.8 | 
CCS(=O)(=O)NC(=O)c1cc(C2CC2)c(OCC2CCN([C@](C)(COC)c3cc(Cl)cc(Cl)c3)CC2)cc1F (single isomer, unassigned) [Example 203] | 3.6 |  | 
CCS(=O)(=O)NC(=O)c1cc(C2CC2)c(OCC2CCN([C@@](C)(COC)c3cc(Cl)cc(Cl)c3)CC2)cc1F (single isomer, unassigned) [Example 204] | 2.7 |  | 
CS(=O)(=O)NC(=O)c1cc(C2CC2)c(OCC2CN([C@@H](c3ccccc3)c3ccc(C#N)cc3)C2)cc1F [Example 110, (S)-4-((1-((4-Cyanophenyl)(phenyl)methyl)azetidin-3-yl)methoxy)-5-cyclopropyl-2-fluoro-N-(methylsulfonyl)benzamide] |  |  | IC50 (hNav1.7): 41.1 nM
CC(c1cc(Cl)cc(Cl)c1)N1CCC(COc2cc(F)c(C(=O)NS(=O)(=O)N3CCC3)cc2C2CC2)CC1 (centres unmarked) [Example 103, N-(Azetidin-1-ylsulfonyl)-5-cyclopropyl-4-((1-(1-(3,5-dichlorophenyl)-ethyl)piperidin-4-yl)methoxy)-2-fluorobenzamide] | 5.24 |  | 
CC(=O)N1CCC[C@@H](Oc2cc(F)c(C(=O)NS(=O)(=O)C3CC3)cc2C2CC2)C1 [Example 4, (R)-4-((1-acetylpiperidin-3-yl)oxy)-5-cyclopropyl-N-(cyclopropylsulfonyl)-2-fluorobenzamide] |  |  | IC50 (hNav1.7): 6600 nM
C[C@@H]1CN(Cc2cc(F)c(C(=O)NS(=O)(=O)C3CC3)cc2C2CC2)CCN1[C@H](C)c1cc(Cl)cc(Cl)c1 [Example 570, 5-cyclopropyl-N-(cyclopropylsulfonyl)-4-(((R)-4-((R)-1-(3,5-dichlorophenyl)ethyl)-3-methylpiperazin-1-yl)methyl)-2-fluorobenzamide] |  |  | IC50 (hNav1.7): 2.9 nM
CS(=O)(=O)NC(=O)c1cc(C2CC2)c(CN2CCC(Oc3ccc(C(F)(F)F)cc3)CC2)cc1F [Example 499, 5-cyclopropyl-2-fluoro-N-(methylsulfonyl)-4-((4-(4-(trifluoromethyl)phenoxy)piperidin-1-yl)methyl)benzamide] |  |  | IC50 (hNav1.7): 13.6 nM
CC1(COc2cc(F)c(C(=O)NS(C)(=O)=O)cc2C2CC2)CN(Cc2cc(Cl)cc(Cl)c2)C1 [Example 77] | 6.4 |  | 
